This note sets out measurements from patent US9809853B2, “Calcium-activated chloride channel involved in human sweat formation” (BRAIN Biotechnology Research and Information Network AG, priority 2012, dated 2017).

For this assay, the target named is T1, CaCC (Ca^2+-activated chloride channels) in NCL-SG3-hsYFP cells (Homo sapiens, UniProt Q5XXA6).
T1 sequence (Q5XXA6 1-986): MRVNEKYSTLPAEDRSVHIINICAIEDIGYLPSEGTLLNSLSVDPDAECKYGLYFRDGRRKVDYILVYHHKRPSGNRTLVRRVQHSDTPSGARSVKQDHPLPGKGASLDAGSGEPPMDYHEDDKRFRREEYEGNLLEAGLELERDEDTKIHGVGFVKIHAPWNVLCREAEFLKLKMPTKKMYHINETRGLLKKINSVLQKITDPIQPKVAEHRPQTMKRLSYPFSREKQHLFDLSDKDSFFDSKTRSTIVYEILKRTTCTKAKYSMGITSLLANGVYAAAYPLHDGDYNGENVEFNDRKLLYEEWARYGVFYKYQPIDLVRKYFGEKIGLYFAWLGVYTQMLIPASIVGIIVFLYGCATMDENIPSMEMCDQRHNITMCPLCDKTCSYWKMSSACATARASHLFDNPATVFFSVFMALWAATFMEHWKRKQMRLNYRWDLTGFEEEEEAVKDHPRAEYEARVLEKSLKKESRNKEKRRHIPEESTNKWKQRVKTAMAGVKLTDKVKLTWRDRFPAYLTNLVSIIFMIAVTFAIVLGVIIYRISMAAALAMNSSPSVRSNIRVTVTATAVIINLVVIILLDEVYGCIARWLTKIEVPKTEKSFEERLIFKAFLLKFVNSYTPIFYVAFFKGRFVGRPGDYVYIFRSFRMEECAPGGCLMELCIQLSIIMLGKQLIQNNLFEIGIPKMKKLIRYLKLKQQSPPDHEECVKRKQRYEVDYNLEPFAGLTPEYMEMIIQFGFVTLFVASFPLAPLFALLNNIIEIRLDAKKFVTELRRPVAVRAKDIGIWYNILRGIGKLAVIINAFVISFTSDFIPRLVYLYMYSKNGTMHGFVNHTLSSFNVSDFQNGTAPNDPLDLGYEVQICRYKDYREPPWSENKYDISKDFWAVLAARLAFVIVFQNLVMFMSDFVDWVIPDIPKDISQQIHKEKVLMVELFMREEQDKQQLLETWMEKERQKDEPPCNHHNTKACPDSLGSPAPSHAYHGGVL
Kind of assay: hsYFP fluorescence quenching (Cl^− efflux/I^− influx) assay in NCL-SG3-hsYFP CaCC activity sensor cells. It counts as cell-based. As for the experimental part: The halide inside the cell functionally interacts with the halide-sensitive cytoplasmic indicator protein, which leads to a quenching of the signal provided by the halide-sensitive cytoplasmic indicator protein. The more halide (such as e.g. iodide) flows into the cell, the weaker the signal emitted by the halide-sensitive cytoplasmic indicator protein becomes. This alteration of the signal emitted by the halide-sensitive cytoplasmic indicator protein is determined in a third step of the method of the invention. Due to the fact that the influx of halide into the cell is proportional to the efflux of chloride ions, the halide influx is used as a direct measure for chloride secretion. To determine the amount of chloride secretion, the fluorescence decrease is plotted against time (Δfluorescence/Δtime) and the initial slope of the resulting graph represents the iodide influx rate (sec^−1), which in turn is directly proportional to the chloride efflux rate, representing the amount of chloride secretion per time. In a fourth step, this amount of chloride secretion determined in the presence of a test compound is compared to the amount of chloride secretion determined in the absence of a said compound.
Effect of CaCC inhibitors on sweat gland-specific Ca^2+-dependent […] and proportional I^− influx was determined using NCL-SG3-hsYFP cells. Quenching of intracellular hsYFP fluorescence was measured and plotted over time. Exemplary raw data (B) and fitted curves are shown (A). NCL-SG3-hsYFP cells were incubated with 50 μM tannic acid (TA), 25 μM niflumic acid (NFA), 25 μM 5-nitro-2-(3-phenylpropyl-amino) benzoic acid (NPPB), 100 μM epigallocatechin-3-gallate (EGCG) for 15 min and then stimulated with 330 μM ATP.
Sweat gland-specific Ca^2+-dependent Cl^− efflux and a proportional I^− influx was determined using NCL-SG3-hsYFP cells. Quenching of intracellular hsYFP fluorescence was measured and plotted over time. Exemplary fitted curves are shown. NCL-SG3-hsYFP cells were incubated with increasing concentrations of tannic acid (TA) and then stimulated with 330 μM ATP. […] NCL-SG3-hsYFP cells were incubated with increasing concentrations of CaCC inhibitors and quenching of intracellular hsYFP fluorescence was measured after stimulation with ATP. The rate of […] (sec^−1), which is proportional to Ca^2+-dependent […] was calculated from the initial slope of the measured hsYFP fluorescence (ΔYFP fluorescence/Δtime) and is a direct measure of CaCC activity. IC50 values were determined by plotting the percentage of residual CaCC activity against the individual inhibitor concentration.
NCL-SG3-hsYFP cells were routinely cultivated in Williams' Medium E supplemented with 9% Fetal Calf Serum, 3.5 mM Glutamine, 9 ng/μl Hydrocortisone, Insulin-Transferrin-Selenium-Supplement (PAA Laboratories) at 37° C. and 5% CO2. For microplate assays, 20,000 cells were seeded in 96-well black-walled, clear bottom microplates (Costar) and cultivated for 2 days until cells reached confluency. Cells were washed three times with 100 μl modified Krebs-Henseleit (KH) buffer (137 mM NaCl, 2.7 mM KCl, 1.2 mM MgSO4, 1.2 mM KH2PO4, 4.2 mM NaHCO3, 1.3 mM CaCl2, 10 mM HEPES, pH 7.4) and incubated with the test compound in 50 μl KH-buffer for 15 min at 37° C. and 5% CO2. Microplates were transferred into an automated fluorescence plate reader (FlexStation®, Molecular Devices) and cellular hsYFP fluorescence was continuously recorded every 3.5 sec until end of the experiment (excitation at 485 nm, emission at 535 nm, cutoff 515 nm).

Consider `Nc1ncnc2c1ncn2[C@@H]1O[C@H](COP(=O)(O)OP(=O)(O)OP(=O)(O)O)[C@@H](O)[C@H]1O` [ATP], for which the “Quenching of hsYFP fluorescence after addition of Ca^2+-elevating agent” value (330 μM) is on record as “fast quenching of the hsYFP fluorescence without recovery”. Moreover, the “Concentration giving maximal quenching of hsYFP” value (dose-dependent stimulation of Ca^2+-dependent Cl^− transport) is 330 µM.
Consider `O=C(OC[C@H]1O[C@@H](OC(=O)c2cc(O)c(O)c(OC(=O)c3cc(O)c(O)c(O)c3)c2)[C@H](OC(=O)c2cc(O)c(O)c(OC(=O)c3cc(O)c(O)c(O)c3)c2)[C@@H](OC(=O)c2cc(O)c(O)c(OC(=O)c3cc(O)c(O)c(O)c3)c2)[C@@H]1OC(=O)c1cc(O)c(O)c(OC(=O)c2cc(O)c(O)c(O)c2)c1)c1cc(O)c(O)c(OC(=O)c2cc(O)c(O)c(O)c2)c1` [TA, tannic acid], for which the “Effect on hsYFP quenching by Cl^− efflux/I^− influx mediated by ATP” value (50 μM, 15 min, then 330 μM ATP) is “significant reduction of hsYFP quenching”. For the setting “increasing inhibitor concentrations, stimulation with 330 μM ATP”, the “Dose dependence of inhibition of CaCC-mediated Cl^− efflux” value was “dose-dependent reduction of hsYFP quenching”. In addition, the “Effect of pretreatment on basal hsYFP quenching” value (unactivated cells (no ATP)) is on record as “significant reduction of basal hsYFP quenching”.
